Measured values published in ChEMBL document CHEMBL3046715, “In vivo evaluation of substituted 3-phenyl,7-methoxy-benzopyrans as modified estrogens” (2010).

Experiments:
Format in all cases: functional
[1] = tested on: Rattus norvegicus; test: Estrogen agonistic activity in immature Rattus norvegicus Sprague-Dawley (rat) assessed as gain in uterine weight at 10 mg/kg, po qd for 3 days
[2] = tested on: Rattus norvegicus; test: Estrogen antagonistic activity in immature Rattus norvegicus Sprague-Dawley (rat) assessed as inhibition of ethynylestradiol-induced increase in uterine weight at 10 mg/kg, po qd for 3 days; details: 72 h
[3] = tested on: Rattus norvegicus; test: Estrogen agonistic activity in immature Rattus norvegicus Sprague-Dawley (rat) assessed as uterine weight at 0.02 mg/kg, po qd for 3 days (reference value: 14 +/- 1.3 to 22.23 +/- 1.2 mg)

| Compound | Activity [1] | inhibition in vivo at 10 mg/kg [2] | Activity [3] |
| --- | --- | --- | --- |
| COc1ccc(C2COc3cc(OCCCC(C)(C)O)ccc3C2)cc1 (configuration not stated) | 31% | 6% |  |
| CCC(O)(CC)CCCOc1ccc2c(c1)OCC(c1ccc(OC)cc1)C2 (configuration not stated) | 48% | 3% |  |
| C=C1CC[C@H](O)C/C1=C/C=C1\CCC[C@]2(C)[C@@H]([C@H](C)CCCC(C)C)CC[C@@H]12 [CHOLECALCIFEROL] | 82% | 39% |  |
| C#C[C@]1(O)CC[C@H]2[C@@H]3CCc4cc(O)ccc4[C@H]3CC[C@@]21C [ETHINYL ESTRADIOL] | 480% |  | 85 mg |
| COc1ccc2c(c1)OC(C)(C)C(c1ccccc1)C2c1ccc(OCCN2CCCC2)cc1 (configuration not stated) [ORMELOXIFENE] | 156% | 67% |  |
| O=C(c1ccc(OCCN2CCCCC2)cc1)c1c(-c2ccc(O)cc2)sc2cc(O)ccc12 [RALOXIFENE] | 90% | 57% |  |
